# Measured values taken from patent US12410179B2, “Modulators of TNF alpha activity and uses thereof” (RayThera, Inc., priority 2023, dated 2025).
# Molecular target: TNFα (Homo sapiens, UniProt P01375)
# Experiment: HEK-Blue hTNFα reporter assay
# Type: cell-based
# Parameters: purchased R&D biosystem (R&D Systems) 210-TA-020/CF
# Details: HEK-Blue hTNFα reporter cells, SEAP readout; read-out: IC50 Range
# Outline: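 IC50 from 4-parameter regression of % inhibition, with OD620 of secreted SEAP (QUANTI-Blue, 1 h) referenced to cells with and without hTNFα. HEK-Blue TNFα reporter cells were exposed 24 h to compound premixed 1 h with hTNFα ([…]).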
# Chain of TNFα (P01375 77-233 limits assumed): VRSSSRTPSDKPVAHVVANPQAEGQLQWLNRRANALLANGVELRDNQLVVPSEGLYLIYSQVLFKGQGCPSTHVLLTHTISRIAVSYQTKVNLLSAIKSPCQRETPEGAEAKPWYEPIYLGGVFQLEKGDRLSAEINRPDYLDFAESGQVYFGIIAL
row,Structure (SMILES),IC50 [µM]
1,C[C@]1(C#N)C[C@](N)(c2ncc(-c3ccn4nc5c(c4n3)[C@@H]3C[C@H]5NC(=O)c4cccc(OC(F)F)c43)cc2F)C1 [Example 173],< 0.025
2,C[C@]1(C#N)C[C@](N)(c2ncc(-c3nc4c5c(nn4cc3F)[C@H]3C[C@@H]5c4c(OC(F)F)cccc4C(=O)N3)cc2F)C1 [Example 174],< 0.025
3,[2H]C([2H])([2H])N1C(=O)c2cccc(OC(F)F)c2[C@H]2C[C@@H]1c1nn3cnc(-c4cnc([C@]5(N)C[C@@](C)(C#N)C5)c(F)c4)cc3c12 [Example 175],< 0.025
4,[2H]C([2H])([2H])N1C(=O)c2cccc(OC(F)F)c2[C@H]2C[C@@H]1c1nn3ccc(-c4cnc([C@]5(N)C[C@@H](C#N)C5)nc4)nc3c12 [Example 176],< 0.025
5,[2H]C([2H])([2H])N1C(=O)c2cccc(OC(F)F)c2[C@H]2C[C@@H]1c1nn3ccc(-c4cnc(C5(N)COC5)nc4)nc3c12 [Example 177],0.025 to 0.1
6,[2H]C([2H])([2H])N1C(=O)c2cccc(OC(F)F)c2[C@H]2C[C@@H]1c1nn3cc(F)c(-c4cnc(C5(N)COC5)nc4)nc3c12 [Example 178],< 0.025
7,[2H]C([2H])([2H])N1C(=O)c2cccc(OC(F)F)c2[C@H]2C[C@@H]1c1nn3ccc(-c4cnc([C@]5(N)C[C@H](C#N)C5)nc4)nc3c12 [Example 179],< 0.025
8,[2H]C([2H])([2H])N1C(=O)c2cccc(OC(F)F)c2[C@H]2C[C@@H]1c1nn3ccc(-c4cnc([C@]5(O)C[C@@](C)(N)C5)nc4)nc3c12 [Example 180],0.1 to 1
9,[2H]C([2H])([2H])N1C(=O)c2cccc(OC(F)F)c2[C@H]2C[C@@H]1c1nn3cc(C)c(-c4cnc(C5(N)CCC5)nc4)cc3c12 [Example 181],< 0.025
10,[2H]C([2H])([2H])N1C(=O)c2cccc(OC(F)F)c2[C@H]2C[C@@H]1c1nn3ccc(-c4ccc(C5(N)CCC5)nc4)nc3c12 [Example 182],< 0.025
11,[2H]C([2H])([2H])N1C(=O)c2cccc(OC(F)F)c2[C@H]2C[C@@H]1c1nn3cc(F)c(-c4cnc([C@]5(N)C[C@](O)(C(F)(F)F)C5)nc4)nc3c12 [Example 183],< 0.025
12,NC1(c2ncc(-c3ccn4nc5c(c4c3)[C@@H]3C[C@H]5NC(=O)c4cccc(OC(F)F)c43)cn2)CCC1 [Example 184],< 0.025
13,[2H]C([2H])([2H])N1C(=O)c2cccc(OC(F)F)c2[C@H]2C[C@@H]1c1nn3cc(F)c(-c4cnc([C@]5(O)C[C@@](C)(N)C5)nc4)nc3c12 [Example 185],0.025 to 0.1
14,NC1(c2ccc(-c3ccn4nc5c(c4n3)[C@@H]3C[C@H]5NC(=O)c4cccc(OC(F)F)c43)cn2)CCC1 [Example 186],0.025 to 0.1
15,[2H]C([2H])([2H])N1C(=O)c2cccc(OC(F)F)c2[C@H]2C[C@@H]1c1nn3ccc(-c4cnc([C@]5(N)C[C@@H](O)C5)nc4)cc3c12 [Example 187],< 0.025
16,[2H]C([2H])([2H])N1C(=O)c2cccc(OC(F)F)c2[C@H]2C[C@@H]1c1nn3cc(F)c(-c4cnc([C@]5(N)C[C@@](C)(O)C5)c(F)c4)nc3c12 [Example 188],< 0.025
17,[2H]C([2H])([2H])N1C(=O)c2cccc(OC(F)F)c2[C@H]2C[C@@H]1c1nn3ccc(-c4cnc([C@]5(N)C[C@@](C)(O)C5)c(F)c4)nc3c12 [Example 189],< 0.025
18,C[C@]1(C#N)C[C@](N)(c2ncc(-c3ccn4nc5c(c4c3)[C@@H]3C[C@H]5NC(=O)c4cccc(OC(F)F)c43)cc2F)C1 [Example 190],< 0.025
19,C[C@@](O)(CC#N)c1ncc(-c2cc3c4c(nn3cc2F)[C@H]2C[C@@H]4c3c(OC(F)F)cccc3C(=O)N2)cn1 [Example 191],< 0.025
20,C[C@](O)(CC#N)c1ncc(-c2cc3c4c(nn3cc2F)[C@H]2C[C@@H]4c3c(OC(F)F)cccc3C(=O)N2)cn1 [Example 192],< 0.025
21,[2H]C([2H])([2H])N1C(=O)c2cccc(OC(F)F)c2[C@H]2C[C@@H]1c1nn3ccc(-c4cnc([C@]5(N)CCOC5)nc4)nc3c12 [Example 193],< 0.025
22,[2H]C([2H])([2H])N1C(=O)c2cccc(OC(F)F)c2[C@H]2C[C@@H]1c1nn3ccc(-c4cnc([C@@]5(N)CCOC5)nc4)nc3c12 [Example 194],0.025 to 0.1
23,C[C@]1(C#N)C[C@](N)(c2ncc(-c3ccn4nc5c(c4c3)[C@@H]3C[C@H]5NC(=O)c4cccc(OC(F)F)c43)cn2)C1 [Example 195],< 0.025
24,C[C@]1(O)C[C@](N)(c2ncc(-c3ccn4nc5c(c4c3)[C@@H]3C[C@H]5NC(=O)c4cccc(OC(F)F)c43)cn2)C1 [Example 197],< 0.025
25,Cc1cc(P(C)(C)=O)c(F)cc1-c1ccn2nc3c(c2c1)[C@@H]1C[C@H]3NC(=O)c2cccc(OC(F)F)c21 [Example 198],< 0.025
26,[2H]C([2H])([2H])N1C(=O)c2cccc(OC(F)F)c2[C@H]2C[C@@H]1c1nn3cc(F)c(-c4cnc(C5(N)CCC5)cn4)cc3c12 [Example 199],< 0.025
27,[2H]C([2H])([2H])N1C(=O)c2cccc(OC(F)F)c2[C@H]2C[C@@H]1c1nn3cc(F)c(-c4cnc([C@]5(N)C[C@@](C)(C#N)C5)cn4)cc3c12 [Example 200],< 0.025

row,Structure (SMILES),IC50 [µM]
1,[2H]C([2H])([2H])N1C(=O)c2cccc(OC(F)F)c2[C@H]2C[C@@H]1c1nn3cc(C)c(-c4cnc([C@]5(N)C[C@@](C)(O)C5)nc4)cc3c12 [Example 201],< 0.025
2,O=C1N[C@@H]2C[C@H](c3c(OC(F)F)cccc31)c1c2nn2ccc(-c3ccnc(OC4COC4)c3)cc12 [Example 202],< 0.025
3,NC1(c2ccc(-c3ccn4nc5c(c4c3)[C@@H]3C[C@H]5NC(=O)c4cccc(OC(F)F)c43)cn2)CCC1 [Example 203],< 0.025
4,[2H]C([2H])([2H])N1C(=O)c2cccc(OC(F)F)c2[C@H]2C[C@@H]1c1nn3ccc(-c4cnc([C@]5(N)C[C@@H](O)C5)nc4)nc3c12 [Example 204],0.025 to 0.1
5,[2H]C([2H])([2H])N1C(=O)c2cccc(OC(F)F)c2[C@H]2C[C@@H]1c1nn3cc(F)c(-c4cnc([C@]5(N)C[C@@H](O)C5)nc4)nc3c12 [Example 205],0.025 to 0.1
6,[2H]C([2H])([2H])N1C(=O)c2cccc(OC(F)F)c2[C@H]2C[C@@H]1c1nn3cc(F)c(-c4cnc(C5(N)COC5)nc4)cc3c12 [Example 206],< 0.025
7,[2H]C([2H])([2H])N1C(=O)c2cccc(OC(F)F)c2[C@H]2C[C@@H]1c1nn3ccc(-c4cnc(C5(N)CCC5)cn4)cc3c12 [Example 207],< 0.025
8,[2H]C([2H])([2H])N1C(=O)c2cccc(OC(F)F)c2[C@H]2C[C@@H]1c1nn3ccc(-c4cnc([C@]5(O)C[C@@](C)(N)C5)nc4)cc3c12 [Example 208],< 0.025
9,[2H]C([2H])([2H])N1C(=O)c2cccc(OC(F)F)c2[C@H]2C[C@@H]1c1nn3ccc(-c4cnc([C@]5(N)C[C@@](C)(O)C5)cn4)cc3c12 [Example 209],< 0.025
10,[2H]C([2H])([2H])N1C(=O)c2cccc(OC(F)F)c2[C@H]2C[C@@H]1c1nn3ccc(-c4cnc([C@]5(N)C[C@@](C)(C#N)C5)cn4)cc3c12 [Example 210],< 0.025
11,[2H]C([2H])([2H])N1C(=O)c2cccc(OC(F)F)c2[C@H]2C[C@@H]1c1nn3ccc(-c4ncc(C5(N)CCC5)cn4)cc3c12 [Example 211],< 0.025
12,C[C@]1(C#N)C[C@](N)(c2ccc(-c3ccn4nc5c(c4c3)[C@@H]3C[C@H]5NC(=O)c4cccc(OC(F)F)c43)cn2)C1 [Example 212],< 0.025
13,[2H]C([2H])([2H])N1C(=O)c2cccc(OC(F)F)c2[C@H]2C[C@@H]1c1nn3cc(F)c(-c4cnc([C@]5(N)C[C@@](C)(C#N)C5)nc4)nc3c12 [Example 213],< 0.025
14,[2H]C([2H])([2H])N1C(=O)c2cccc(OC(F)F)c2[C@H]2C[C@@H]1c1nn3cc(F)c(-c4cnc([C@]5(N)C[C@@](C)(O)C5)cn4)cc3c12 [Example 214],< 0.025
15,[2H]C([2H])([2H])N1C(=O)c2cccc(OC(F)F)c2[C@H]2C[C@@H]1c1nn3cc(C)c(-c4cnc([C@]5(N)C[C@@](C)(O)C5)nc4)nc3c12 [Example 215],< 0.025
16,[2H]C([2H])([2H])N1C(=O)c2cccc(OC(F)F)c2[C@H]2C[C@@H]1c1nn3cc(C)c(-c4cnc(C5(N)CCC5)nc4)nc3c12 [Example 216],< 0.025
17,C[C@]1(C#N)C[C@](N)(c2ccc(-c3ccn4nc5c(c4n3)[C@@H]3C[C@H]5NC(=O)c4cccc(OC(F)F)c43)cn2)C1 [Example 217],< 0.025
18,[2H]C([2H])([2H])N1C(=O)c2cccc(OC(F)F)c2[C@H]2C[C@@H]1c1nn3ccc(-c4cnc([C@]5(N)C[C@@](C)(O)C5)nc4)nc3c12 [Example 218],< 0.025
19,C[C@]1(O)C[C@](N)(c2ccc(-c3ccn4nc5c(c4n3)[C@@H]3C[C@H]5NC(=O)c4cccc(OC(F)F)c43)cn2)C1 [Example 220],0.025 to 0.1
20,[2H]C([2H])([2H])N1C(=O)c2cccc(OC(F)F)c2[C@H]2C[C@@H]1c1nn3ccc(-c4cnc(C5(N)CCC5)c(F)c4)nc3c12 [Example 221],< 0.025
21,[2H]C([2H])([2H])N1C(=O)c2cccc(OC(F)F)c2[C@H]2C[C@@H]1c1nn3ccc(-c4cnc([C@]5(N)C[C@@](C)(O)C5)nc4)cc3c12 [Example 222],< 0.025
22,C[C@]1(O)C[C@](N)(c2ncc(-c3nc4c5c(nn4cc3F)[C@H]3C[C@@H]5c4c(OC(F)F)cccc4C(=O)N3)cn2)C1 [Example 223],< 0.025
23,C[C@]1(O)C[C@](N)(c2ccc(-c3ccn4nc5c(c4c3)[C@@H]3C[C@H]5NC(=O)c4cccc(OC(F)F)c43)cn2)C1 [Example 224],< 0.025
24,[2H]C([2H])([2H])N1C(=O)c2cccc(OC(F)F)c2[C@H]2C[C@@H]1c1nn3cc(F)c(-c4cnc([C@]5(N)C[C@@H](O)C5)c(F)c4)nc3c12 [Example 225],< 0.025
25,COc1cccc2c1[C@H]1C[C@H](c3nn4ccc(-c5cnc(C6(N)CCC6)nc5)cc4c31)N(C)C2=O [Example 226],< 0.025
26,[2H]C([2H])([2H])N1C(=O)c2cccc(OC(F)F)c2[C@H]2C[C@@H]1c1nn3cc(F)c(-c4cnc([C@]5(N)C[C@@H](C#N)C5)nc4)nc3c12 [Example 227],< 0.025
